In ChEMBL document CHEMBL1154194, “Glucose-containing flavones--their synthesis and antioxidant and neuroprotective activities” (Bioorg Med Chem Lett, 2009) one finds IC50 and Activity data, which are given here for nine compounds.

A short description of assay [1]: Antioxidant activity assessed as inhibition of xanthine/xanthine oxidase system-induced superoxide anion radical scavenging activity after 20 mins. The format is functional.
The species entered for a further assay is Rattus norvegicus. Put plainly: (§1) Neuroprotective activity against H2O2-induced neuronal damage in Sprague-Dawley rat cerebral cortical cells after 20 to 24 hrs by MTT assay. The format is functional. (In general: Formazan colour is commonly taken as a measure of viable cells.)
Assay [2] can be described thus: as §1. The format is functional.
The test system of the next assay is Liver. The assay can be described thus: Antioxidant activity in rat liver homogenate assessed as inhibition of iron-ascorbic acid mix-induced lipid peroxidation by TBARS assay. The format is functional, tissue-based.
In assay [3] the test system is Radical scavenging activity. The assay can be described thus: Antioxidant activity assessed as DPPH radical scavenging activity after 30 mins. The format is functional. On the technique in general: DPPH is a stable violet radical that fades when it is reduced.

As for `O=c1cc(-c2ccc(O)c(O)c2)oc2cc(OCCOC[C@@H]3OC(O)[C@@H](O)[C@H](O)[C@H]3O)cc(O)c12` (stereo partly specified), the half-inhibitory concentration (IC50) in assay [1] turned out to be 3.53 µM; in assay [2], 15.7 µM; with Liver it was 47.8 µM; in assay [3] it was 18.5 µM. For the same compound, the Activity entry in the assay listed under Rattus norvegicus is “Dose-dependent effect”.
The like results for `COc1c(-c2ccc(O)c(O)c2)oc2cc(OC3O[C@@H](CO)[C@H](O)[C@@H](O)[C@@H]3O)cc(O)c2c1=O` (stereo partly specified) were, in that order, 10.2 µM, 30.7 µM, 43.2 µM, 16.9 µM and “Dose-dependent effect”.
Regarding `COc1c(-c2ccc(O)c(O)c2)oc2cc(OCC(=O)OC[C@@H]3OC(O)[C@@H](O)[C@H](O)[C@H]3O)cc(O)c2c1=O` (stereo partly specified), the IC50 turned out to be 32.9 µM in assay [1], 5.34 µM in assay [2], 66.7 µM in the assay on Liver and 19.7 µM in assay [3]. The Activity result in the assay listed under Rattus norvegicus was “Dose-dependent effect”.
Regarding `COc1c(-c2ccc(O)c(O)c2)oc2cc(OCCOC[C@@H]3OC(O)[C@@H](O)[C@H](O)[C@H]3O)cc(O)c2c1=O` (stereo partly specified), the IC50 in assay [1] turned out to be 12.8 µM; in assay [2], 58.4 µM; in the assay on Liver, 78 µM; in assay [3] it was 15.6 µM. For the same compound, the Activity result in the assay listed under Rattus norvegicus was “Dose-dependent effect”.
In the case of `COc1c(-c2ccc(O)c(O)c2)oc2cc(O)cc(O)c2c1=O` [3-O-METHYLQUERCETIN], the IC50 in assay [1] is 17.4 µM; in assay [2] it was 3.5 µM; with Liver, 19 µM; in assay [3], 14.2 µM.
Turning to `O=c1cc(-c2ccc(O)c(O)c2)oc2cc(OC3O[C@@H](CO)[C@H](O)[C@@H](O)[C@@H]3O)cc(O)c12` (stereo partly specified), the IC50 amounted to 3.28 µM in assay [1], 7.33 µM in assay [2], 40.4 µM with Liver and 17.3 µM in assay [3]. The Activity result in the assay listed under Rattus norvegicus is “Dose-dependent effect”.
For the compound `O=C1O[C@H]([C@@H](O)CO)C(O)=C1O` [ASCORBIC ACID], the IC50 in assay [1] is over 300 µM; in the assay on Liver it was over 300 µM; in assay [3], 41 µM.
As for `O=C(COc1cc(O)c2c(=O)cc(-c3ccc(O)c(O)c3)oc2c1)OC[C@@H]1OC(O)[C@@H](O)[C@H](O)[C@H]1O` (stereo partly specified), the half-maximal inhibitory concentration (IC50) is 6.22 µM in assay [1], 12.7 µM in assay [2], 47.9 µM in the assay on Liver and 16.7 µM in assay [3]. For the same compound, in the assay listed under Rattus norvegicus, the Activity entry was “Dose-dependent effect”.
As for `O=c1cc(-c2ccc(O)c(O)c2)oc2cc(O)cc(O)c12` [LUTEOLIN], the IC50 in assay [1] turned out to be 8.66 µM; in assay [2], 3.75 µM; with Liver it was 24.7 µM; in assay [3], 16.2 µM.

A word on the IC50: it is the concentration that gives 50% inhibition.
